These results are taken from ChEMBL document CHEMBL2331461, “Microfluidics assisted synthesis and bioevaluation of sinomenine derivatives as antiinflammatory agents” (Eur J Med Chem, 2013).

In one experiment the test system is NIH3T3. In words: Cytotoxicity against mouse NIH/3T3 cells assessed as growth inhibition after 24 hrs by MTT assay. Conditions: for pIC50: Mus musculus, NIH3T3, 24 h, read-out: IC50. The format is cell-based.
The target of experiment [1] is Tumor necrosis factor (Homo sapiens) (UniProt P01375). In words: Inhibition of TNFalpha (unknown origin)-induced NF-kappaB activation in mouse NIH/3T3 cells assessed as inhibition of NF-kappaB binding to DNA at 20 uM after 6 hrs by luciferase reporter gene assay. Type of experiment: cell-based. Conditions: NIH3T3. Background: A reporter such as luciferase makes a cellular process visible.

Experiment [2] concerns Mus musculus. In words: Antiinflammatory activity in ICR mouse assessed as inhibition of lambda-carrageenan-induced paw edema at 15 to 30 mg/kg, ip administered 2 hrs prior to carrageenan challenge measured after 6 to 18 hrs. The format is functional, organism-based. Background: In the carrageenan paw model, swelling and tenderness develop within hours.
Experiment [3] has as its system Mus musculus. In words: Antiinflammatory activity in ICR mouse assessed as inhibition of lambda-carrageenan-induced paw edema at 10 mg/kg, ip administered 2 hrs prior to carrageenan challenge measured after 2 to 18 hrs. The format is functional, organism-based. Also noted: dose 10 mg/kg.

pIC50: −log10 of the molar value. Active and inactive are the calls of the source. The calls are words filed in the database; no cut-off is given here.

Chain of Tumor necrosis factor (Homo sapiens) (P01375 whole entry): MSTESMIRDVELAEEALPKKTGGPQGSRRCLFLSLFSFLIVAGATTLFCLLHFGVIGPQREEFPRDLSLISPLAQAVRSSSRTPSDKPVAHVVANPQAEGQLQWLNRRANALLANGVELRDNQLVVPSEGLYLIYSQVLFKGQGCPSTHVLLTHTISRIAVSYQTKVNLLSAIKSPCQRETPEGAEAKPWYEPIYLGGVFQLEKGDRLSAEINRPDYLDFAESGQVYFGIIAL

For the molecule `COC1=C[C@H]2[C@H]3Cc4c(/C=C/C(=O)OC5CCCCC5)cc(OC)c(O)c4[C@@]2(CCN3C)CC1=O`, the IC50 entry in the experiment with NIH3T3 (nih3t3) is reported as “ND(Insoluble)”.

Broadly, the pIC50 is the negative decadic logarithm of the IC50, by convention in mol/L. On to `COC(=O)[C@H]1C(c2ccc(C)cc2)=NO[C@@H]1c1cc(OC)c(O)c2c1C[C@@H]1[C@@H]3C=C(OC)C(=O)C[C@]23CCN1C`, for which the pIC50 in the experiment with NIH3T3 was 4.09. Besides, in experiment [1], the inhibition entry is “Active”.

As for `COC(=O)/C(C)=C/c1cc(OC)c(O)c2c1C[C@@H]1[C@@H]3C=C(OC)C(=O)C[C@]23CCN1C`, in the experiment with NIH3T3, the negative logarithm of the IC50 (pIC50) is below 4.00.

Consider `COC(=O)[C@@H]1C(c2ccccc2)=NO[C@H]1c1cc(OC)c(O)c2c1C[C@@H]1[C@@H]3C=C(OC)C(=O)C[C@]23CCN1C`, for which the pIC50 in the experiment on NIH3T3 is below 4.00. For the same molecule, in experiment [1], the inhibition result is “inactive”.

As to `COC(=O)[C@@H]1C(c2cccc(C)c2)=NO[C@H]1c1cc(OC)c(O)c2c1C[C@@H]1[C@@H]3C=C(OC)C(=O)C[C@]23CCN1C`, the pIC50 with NIH3T3 was 4.11. In addition, in experiment [1], the inhibition entry was “Active”.

In the case of `COC(=O)[C@@H]1C(c2cccc(Cl)c2)=NO[C@H]1c1cc(OC)c(O)c2c1C[C@@H]1[C@@H]3C=C(OC)C(=O)C[C@]23CCN1C`, the negative logarithm of the IC50 (pIC50) with NIH3T3 was 4.11. The inhibition result in experiment [1] is “inactive”.

In the case of `COC(=O)[C@H]1C(c2ccccc2)=NO[C@@H]1c1cc(OC)c(O)c2c1C[C@@H]1[C@@H]3C=C(OC)C(=O)C[C@]23CCN1C`, the pIC50 in the experiment with NIH3T3 is below 4.00. In experiment [1], the inhibition entry is “Active”.

As to `CCCCC(CC)COC(=O)/C=C/c1cc(OC)c(O)c2c1C[C@@H]1[C@@H]3C=C(OC)C(=O)C[C@]23CCN1C` (some centres undefined), in the experiment with NIH3T3, the pIC50 was 5.32.

Take `COC(=O)[C@H]1C(c2cccc(Cl)c2)=NO[C@@H]1c1cc(OC)c(O)c2c1C[C@@H]1[C@@H]3C=C(OC)C(=O)C[C@]23CCN1C`: the pIC50 with NIH3T3 was 4.15. For the same molecule, in experiment [1], the inhibition result is “Active”.

Consider `COC(=O)[C@H]1C(c2cccc(C)c2)=NO[C@@H]1c1cc(OC)c(O)c2c1C[C@@H]1[C@@H]3C=C(OC)C(=O)C[C@]23CCN1C`, for which, in the experiment on NIH3T3, the pIC50 is below 4.00. Further, the inhibition result in experiment [1] was “Active”.

Consider `COC(=O)/C=C/c1cc(OC)c(O)c2c1C[C@@H]1[C@@H]3C=C(OC)C(=O)C[C@]23CCN1C`, for which, in the experiment with NIH3T3, the pIC50 is below 4.00.

`CCCCCCOC(=O)/C=C/c1cc(OC)c(O)c2c1C[C@@H]1[C@@H]3C=C(OC)C(=O)C[C@]23CCN1C`: the pIC50 with NIH3T3 is 4.41. In addition, the inhibition result (in experiment [1]; with Mus musculus [2]) was “Active” throughout.

Turning to `COc1ccc2c(c1)c(CC(=O)O)c(C)n2C(=O)c1ccc(Cl)cc1`, in the experiment on Mus musculus [3], the inhibition entry is “Active”.

Regarding `COC(=O)[C@H]1C(c2ccc(OC)cc2)=NO[C@@H]1c1cc(OC)c(O)c2c1C[C@@H]1[C@@H]3C=C(OC)C(=O)C[C@]23CCN1C`, the negative-log IC50 (pIC50) in the experiment with NIH3T3 was below 4.00. Moreover, the inhibition entry in experiment [1] was “Active”.

`COC1=C[C@@H]2[C@@H]3Cc4ccc(OC)c(O)c4[C@]2(CCN3C)CC1=O` [SINOMENINE]: the pIC50 in the experiment with NIH3T3 was below 4.00. For the same molecule, the inhibition result in experiment [1] is “inactive”.

Turning to `CCOC(=O)/C=C/c1cc(OC)c(O)c2c1C[C@@H]1[C@@H]3C=C(OC)C(=O)C[C@]23CCN1C`, in the experiment with NIH3T3, the pIC50 is below 4.00.

On to `COC1=C[C@H]2[C@H]3Cc4c(/C=C/C(=O)OC(C)(C)C)cc(OC)c(O)c4[C@@]2(CCN3C)CC1=O`, for which the negative-log IC50 (pIC50) in the experiment on NIH3T3 is below 4.00.

As for `COCCOC(=O)/C=C/c1cc(OC)c(O)c2c1C[C@@H]1[C@@H]3C=C(OC)C(=O)C[C@]23CCN1C`, in the experiment with NIH3T3, the negative logarithm of the IC50 (pIC50) was below 4.00.

In the case of `COC(=O)[C@H]1C(c2ccc(Br)cc2)=NO[C@@H]1c1cc(OC)c(O)c2c1C[C@@H]1[C@@H]3C=C(OC)C(=O)C[C@]23CCN1C`, the negative-log IC50 (pIC50) in the experiment with NIH3T3 was 4.25. The inhibition result in experiment [1] is “Active”.

Regarding `CCCCOC(=O)/C=C/c1cc(OC)c(O)c2c1C[C@@H]1[C@@H]3C=C(OC)C(=O)C[C@]23CCN1C`, the pIC50 in the experiment with NIH3T3 is 4.10. Also, the inhibition entry in experiment [1] is “Active”.

As to `COC(=O)[C@@H]1C(c2ccc(OC)cc2)=NO[C@H]1c1cc(OC)c(O)c2c1C[C@@H]1[C@@H]3C=C(OC)C(=O)C[C@]23CCN1C`, the pIC50 in the experiment on NIH3T3 is 4.08. Moreover, in experiment [1], the inhibition result is “inactive”.

Take `COC(=O)[C@@H]1C(c2ccc(C)cc2)=NO[C@H]1c1cc(OC)c(O)c2c1C[C@@H]1[C@@H]3C=C(OC)C(=O)C[C@]23CCN1C`: in the experiment on NIH3T3, the pIC50 is 4.11. For the same molecule, the inhibition entry in experiment [1] was “Active”.

As to `COC(=O)[C@@H]1C(c2ccc(Cl)cc2)=NO[C@H]1c1cc(OC)c(O)c2c1C[C@@H]1[C@@H]3C=C(OC)C(=O)C[C@]23CCN1C`, the pIC50 with NIH3T3 was 4.12. Besides, the inhibition result in experiment [1] is “inactive”.

On to `COC1=C[C@H]2[C@H]3Cc4c(/C=C/C(=O)OCC(C)C)cc(OC)c(O)c4[C@@]2(CCN3C)CC1=O`, for which the pIC50 with NIH3T3 is below 4.00.

Take `COC(=O)[C@H]1C(c2ccc(Cl)cc2)=NO[C@@H]1c1cc(OC)c(O)c2c1C[C@@H]1[C@@H]3C=C(OC)C(=O)C[C@]23CCN1C`: the pIC50 with NIH3T3 is 4.18. The inhibition entry in experiment [1] was “Active”.

With `COC(=O)[C@@H]1C(c2ccc(Br)cc2)=NO[C@H]1c1cc(OC)c(O)c2c1C[C@@H]1[C@@H]3C=C(OC)C(=O)C[C@]23CCN1C`, the pIC50 in the experiment with NIH3T3 was 4.27. The inhibition entry in experiment [1] was “inactive”.
